Laboratory results: paper PMC4554999 (Bioorganic & medicinal chemistry, 2015)
Where two headings read alike, the source gives them in different places.

Columns and labels:
[1] = system: nicotine-induced antinociception; assay: Antagonism of nicotine-induced antinociception, tail-flick test; assay type: in vivo, mouse; details: mice
rat α3β4-nAChR = rat α3β4-nAChR (Rattus norvegicus, UniProt P04757+P12392); assay: Electrophysiology; assay type: cell-based; details: 100 μM compound; rat receptor in Xenopus oocytes
α4β2*-nAChRs = α4β2*-nAChRs (Rattus norvegicus, UniProt P09483+P12390); assay: biochemical; assay type: binding
rat α7-nAChR [2] = molecular target: T1, rat α7-nAChR (Rattus norvegicus, UniProt Q05941); assay type: cell-based
rat α7-nAChR [3] = molecular target: T1, rat α7-nAChR; assay: cell-based; details: read-out: antagonist activity at α7-nAChRs, % inhibition
mice [4] = details: ref [5]; cited from earlier work
mice [5] = details: agonist antinociception, ref [5]; cited from earlier work
mice [6] = details: Table 1, head line above prints AD50 (μg/kg), ref [5]; cited from earlier work
mice [7] = details: agonist antinociception, ref [5]; cited from earlier work; remark: listed apart in the source

T1 sequence (Q05941 23-502): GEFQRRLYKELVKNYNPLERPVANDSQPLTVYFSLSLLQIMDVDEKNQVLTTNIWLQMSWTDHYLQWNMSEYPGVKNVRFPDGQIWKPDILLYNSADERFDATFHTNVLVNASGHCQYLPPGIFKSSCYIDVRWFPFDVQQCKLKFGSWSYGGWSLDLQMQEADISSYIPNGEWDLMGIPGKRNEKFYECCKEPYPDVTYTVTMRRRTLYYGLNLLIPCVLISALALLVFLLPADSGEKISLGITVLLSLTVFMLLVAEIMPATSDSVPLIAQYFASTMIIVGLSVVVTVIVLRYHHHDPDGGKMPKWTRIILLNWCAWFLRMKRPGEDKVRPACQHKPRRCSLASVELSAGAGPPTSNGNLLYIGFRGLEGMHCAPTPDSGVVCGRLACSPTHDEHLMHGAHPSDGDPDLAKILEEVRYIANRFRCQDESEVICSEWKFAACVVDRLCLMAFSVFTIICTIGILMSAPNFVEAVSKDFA
Sequence of rat α3β4-nAChR (P04757 26-499): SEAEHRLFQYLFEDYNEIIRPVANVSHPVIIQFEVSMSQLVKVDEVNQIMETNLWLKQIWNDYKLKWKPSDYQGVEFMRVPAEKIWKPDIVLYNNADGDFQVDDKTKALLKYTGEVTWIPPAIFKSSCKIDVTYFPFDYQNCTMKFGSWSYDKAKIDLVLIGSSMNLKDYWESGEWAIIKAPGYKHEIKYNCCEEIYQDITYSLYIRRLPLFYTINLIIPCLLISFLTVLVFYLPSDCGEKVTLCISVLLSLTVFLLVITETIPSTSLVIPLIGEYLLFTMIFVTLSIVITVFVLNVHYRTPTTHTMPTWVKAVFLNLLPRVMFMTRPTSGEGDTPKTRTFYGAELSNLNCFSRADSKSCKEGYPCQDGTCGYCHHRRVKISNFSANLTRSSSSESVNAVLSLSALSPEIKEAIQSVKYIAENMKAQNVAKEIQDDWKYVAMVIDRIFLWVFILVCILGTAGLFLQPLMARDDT
Sequence of rat α3β4-nAChR (P12392 21-495): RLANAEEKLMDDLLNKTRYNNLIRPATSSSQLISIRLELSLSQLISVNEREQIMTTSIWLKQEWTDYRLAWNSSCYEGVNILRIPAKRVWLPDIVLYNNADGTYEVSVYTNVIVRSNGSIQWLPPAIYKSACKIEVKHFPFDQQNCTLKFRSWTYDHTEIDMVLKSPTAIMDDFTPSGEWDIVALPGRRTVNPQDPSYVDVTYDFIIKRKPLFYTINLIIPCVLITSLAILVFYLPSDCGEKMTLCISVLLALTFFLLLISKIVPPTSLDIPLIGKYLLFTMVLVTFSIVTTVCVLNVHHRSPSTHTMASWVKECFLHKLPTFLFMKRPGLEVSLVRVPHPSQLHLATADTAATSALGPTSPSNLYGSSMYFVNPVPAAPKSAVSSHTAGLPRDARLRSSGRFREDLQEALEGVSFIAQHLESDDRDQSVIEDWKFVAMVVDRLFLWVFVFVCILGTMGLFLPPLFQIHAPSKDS
Sequence of α4β2*-nAChRs (P09483 31-630): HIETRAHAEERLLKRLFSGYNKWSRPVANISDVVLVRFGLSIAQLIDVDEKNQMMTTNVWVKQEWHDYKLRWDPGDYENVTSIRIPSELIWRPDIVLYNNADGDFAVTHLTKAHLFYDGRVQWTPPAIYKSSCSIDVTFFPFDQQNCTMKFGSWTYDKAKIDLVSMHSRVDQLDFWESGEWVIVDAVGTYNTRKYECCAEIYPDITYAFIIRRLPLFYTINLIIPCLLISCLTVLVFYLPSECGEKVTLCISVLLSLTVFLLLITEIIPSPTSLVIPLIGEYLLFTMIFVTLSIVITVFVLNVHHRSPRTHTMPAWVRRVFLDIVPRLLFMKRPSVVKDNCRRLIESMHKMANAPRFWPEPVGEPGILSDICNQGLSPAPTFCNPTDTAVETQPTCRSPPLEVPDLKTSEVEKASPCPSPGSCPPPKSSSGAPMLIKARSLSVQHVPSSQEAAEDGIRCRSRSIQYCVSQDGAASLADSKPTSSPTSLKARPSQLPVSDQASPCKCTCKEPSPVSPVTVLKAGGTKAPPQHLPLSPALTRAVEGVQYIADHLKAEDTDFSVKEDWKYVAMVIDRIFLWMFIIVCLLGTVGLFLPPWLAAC
Sequence of α4β2*-nAChRs (P12390 25-500): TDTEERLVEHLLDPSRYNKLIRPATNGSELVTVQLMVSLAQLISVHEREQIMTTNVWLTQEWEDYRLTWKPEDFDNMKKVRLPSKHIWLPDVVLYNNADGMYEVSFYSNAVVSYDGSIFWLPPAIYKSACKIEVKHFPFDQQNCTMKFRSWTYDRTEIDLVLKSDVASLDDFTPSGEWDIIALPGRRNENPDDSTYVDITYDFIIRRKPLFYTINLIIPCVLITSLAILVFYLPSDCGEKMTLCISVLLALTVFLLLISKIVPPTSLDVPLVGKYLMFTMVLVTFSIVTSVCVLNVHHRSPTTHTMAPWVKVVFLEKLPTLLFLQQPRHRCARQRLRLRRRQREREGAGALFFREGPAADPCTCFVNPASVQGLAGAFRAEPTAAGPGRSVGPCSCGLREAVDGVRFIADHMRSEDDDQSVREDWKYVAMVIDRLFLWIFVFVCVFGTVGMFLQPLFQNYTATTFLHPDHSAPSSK

c1cc(-c2cncc([C@H]3C[C@H]4CC[C@H]3N4)c2)ccn1 [Compound 5a, 2-exo-[3′-(Pyridin-4-yl)-5′-pyridnyl]-7-azabicyclo[2.2.1]heptane]
AD50 Tail-Flick [1]: 39 (4–63) μg/kg

Clc1cc(-c2cncc([C@H]3C[C@H]4CC[C@H]3N4)c2)ccn1 [Compound 5c, 2-exo-[3′-(2-Chloropyridin-4-yl)-5′-pyridnyl]-7-azabicyclo[2.2.1]heptane]
AD50 Tail-Flick [1]: 110 (20–645) μg/kg

Nc1cc(-c2cncc([C@H]3C[C@H]4CC[C@H]3N4)c2)ccn1 [Compound 5d, 2-exo-[3′-(2-Aminopyridin-4-yl)-5′-pyridnyl]-7-azabicyclo[2.2.1]heptane]
AD50 Tail-Flick [1]: 1 (0.13–1.4) μg/kg
Agonist Activity (% of max ACh at 100 μM) α3β4 (rat α3β4-nAChR): little or no agonist activity

COc1cc(-c2cncc([C@H]3C[C@H]4CC[C@H]3N4)c2)ccn1 [Compound 5e, 2-exo-[3′-(2-Methoxypyridin-4-yl)-5′-pyridnyl]-7-azabicyclo[2.2.1]heptane]
AD50 Tail-Flick [1]: 0.3 (0.04–20) μg/kg

c1cncc(-c2cncc([C@H]3C[C@H]4CC[C@H]3N4)c2)c1 [Compound 6a, 2-exo-[3′-(Pyridin-3″-yl)-5′-pyridnyl]-7-azabicyclo[2.2.1]heptane]
Ki (α4β2*-nAChRs): 0.12 nM
AD50 Tail-Flick [1]: 0.68 (0.11–4) μg/kg

Fc1ccc(-c2cncc([C@H]3C[C@H]4CC[C@H]3N4)c2)cn1 [Compound 6b, 2-exo-[3′-(2″-Fluoropyridin-5″-yl)-5′-pyridnyl]-7-azabicyclo[2.2.1]heptane]
Agonist Activity (% of max ACh at 100 μM) α7 (rat α7-nAChR [2]): little or no agonist activity

Clc1ccc(-c2cncc([C@H]3C[C@H]4CC[C@H]3N4)c2)cn1 [Compound 6c, 2-exo-[3′-(2″-Chloropyridin-5″-yl)-5′-pyridnyl]-7-azabicyclo[2.2.1]heptane]
AD50 Tail-Flick [1]: 0.5 (0.05–4.7) μg/kg

Nc1ccc(-c2cncc([C@H]3C[C@H]4CC[C@H]3N4)c2)cn1 [Compound 6d, 2-exo-[3′-(2″-Aminopyridin-5″-yl)-5′-pyridnyl]-7-azabicyclo[2.2.1]heptane]
AD50 Tail-Flick [1]: 1.5 (0.5–4.1) μg/kg
Agonist Activity (% of max ACh at 100 μM) α3β4 (rat α3β4-nAChR): little or no agonist activity

COc1ccc(-c2cncc([C@H]3C[C@H]4CC[C@H]3N4)c2)cn1 [Compound 6e, 2-exo-[3′-(2″-Methoxypyridin-5″-yl)-5′-pyridnyl]-7-azabicyclo[2.2.1]heptane]
AD50 Tail-Flick [1]: 0.5 (0.05–4.7) μg/kg
inhibition at 100 µM (rat α7-nAChR [3]): > 80%
Agonist Activity (% of max ACh at 100 μM) α7 (rat α7-nAChR [2]; 100 μM compound, rat receptor in Xenopus oocytes): little or no agonist activity

CN1CCC[C@H]1c1cccnc1 [nicotine]
ED50 Hypothermia (mice [4]): 1.0 (0.6–2.1) mg/kg
ED50 Tail-Flick (mice [5]): 1.3 (0.5–1.8) mg/kg
ED50 Spontaneous Activity (mice [6]): 0.5 (0.15–0.78) μg/kg
ED50 Hot-Plate (mice [7]): 0.65 (0.25–0.85) mg/kg
